Assay results as given in patent US7691842B2, “Tricyclic 6-alkylidene-penems as β-lactamase inhibitors” (Wyeth LLC, priority 2002, dated 2010).
Counter-ions that a name gives are not always drawn. Like-named read-outs stand apart in the source and are kept apart here.

Columns and labels:
[1] = biological target: class A β-lactamase TEM-1 (Escherichia coli, UniProt P62593); assay: β-Lactamase inhibition, IC50 determination (nitrocefin, spectrophotometric); assay type: biochemical, E. Coli
Procedure: (§1) IC50 Determination for the Penem Inhibitor
(§2) β-Lactamase inhibitory activity of the penem inhibitors was determined spectrophotometrically as described by Bush et al., [Bush, K., Macalintal, C., Rasmussen, B. A., Lee, V. and Yang, Y. Antimicrobial Agents and Chemotherapy 1993, 37, 851]. Homogeneously purified class A β-lactamases TEM-1 from E. Coli and Imi-1 from Enterobacter cloacae, class B enzyme CcrA from Bacteroides fragilis and class C enzyme AmpC from Enterobacter cloaca were employed in the assay. The enzyme concentrations for TEM-1, Imi-1, CcrA and AmpC were 4.3, 7.1, 1.2 and 2.1 nM, respectively. A wide range of inhibitor concentrations were prepared in 50 mM PO4, pH 7.0 to include the possible IC50 values. The substrate used to initiate the enzyme reaction was nitrocefin at 50 μg/ml in the same buffer as the inhibitor. Initially the enzyme and inhibitor (20 μl each) were preincubated for 10 minutes at 25° C. prior to the addition of 160 μl volume of nitrocefin. Initial rates of hydrolysis were monitored for 5 minutes at 495 nm using a Molecular Devices Spectra Max 250 with kinetic protocol of SoftMax Program. Readings from the Spectra Max 250 were exported and transferred to Microsoft Excel. The percent of inhibition of each inhibitor concentration was calculated based on the control enzyme activity. The inhibitor concentration that caused a 50% reduction in the enzymatic activity (IC50) was determined graphically.

[2] = biological target: class A β-lactamase Imi-1 (Enterobacter cloacae, UniProt Q46991); assay: as above; assay type: biochemical
Procedure: as §1, §2

class B enzyme CcrA = class B enzyme CcrA (Bacteroides fragilis, UniProt P25910); assay: as above; assay type: biochemical; settings: enzyme 1.2 nM; 10 min preincubation at 25° C.; nitrocefin 50 μg/ml; 50 mM PO4, pH 7.0; read-out: IC50 (nM) Class B Ccr
Procedure: as §1, §2

class C enzyme AmpC = class C enzyme AmpC (Enterobacter cloacae, UniProt P05364); assay: biochemical; set-up: species or system Enterobacter cloaca
Procedure: as §1, §2

E. Cloacae GC1477 (Ampc) = assay: Antimicrobial susceptibility testing, microbroth dilution MIC of piperacillin + inhibitor; assay type: cell-based; settings: piperacillin combined with constant 4 μg/ml inhibitor; Inc: 35° C. for 18 hours
Procedure: (§3) Antimicrobial susceptibility testing. The in vitro activities of the antibiotics were determined by the microbroth dilution method as recommended by the National Committee for Clinical Laboratory Standards (NCCLS). (NCCLS. 2000. Methods for Dilution Antimicrobial Susceptibility Tests for Bacteria That Grow Aerobically; Approved Standards: M7-A5, vol. 19. National Committee for Clinical Laboratory Standards, Villanova, Pa.). Mueller-Hinton it broth (MHBII)(BBL Cockeysville, Md.), was used for the testing procedure. Microtiter plates containing 50 μl per well of two-fold serial dilutions of piperacillin combined with a constant amount (4 μg/ml) of a B-lactamase inhibitor (final concentration) were inoculated with 50 μl of inoculum to yield the appropriate density (10^5 CFU/ml) in 100 μl. The plates were incubated for 18-22 hours at 35° C. in ambient air.

E. Coli GC2203 = assay: as above; assay type: cell-based; settings: piperacillin combined with constant 4 μg/ml inhibitor; Inc: 35° C. for 18 hours
Procedure: as §3

E. Coli GC2844 = assay: as above; assay type: cell-based; settings: piperacillin combined with constant 4 μg/ml inhibitor; Inc: 35° C. for 18 hours
Procedure: as §3

E. Coli GC2847 (TEM-1) = assay: as above; assay type: cell-based; settings: piperacillin combined with constant 4 μg/ml inhibitor; Inc: 35° C. for 18 hours
Procedure: as §3

E. Coli GC2894 (Ampc) = assay: as above; assay type: cell-based; settings: piperacillin combined with constant 4 μg/ml inhibitor; Inc: 35° C. for 18 hours
Procedure: as §3

E. Coli GC2920 (IRT-2) = assay: as above; assay type: cell-based; settings: piperacillin combined with constant 4 μg/ml inhibitor; Inc: 35° C. for 18 hours
Procedure: as §3

[3] = test system: P. aeruginos GC1764 (Ampc); assay: as above; assay type: cell-based; settings: piperacillin combined with constant 4 μg/ml inhibitor; Inc: 35° C. for 18 hours
Procedure: as §3

[4] = test system: S. Marcescens GC1781 Sme-1 + Ampc; assay: as above; assay type: cell-based; settings: piperacillin combined with constant 4 μg/ml inhibitor; Inc: 35° C. for 18 hours
Procedure: as §3

[5] = enzyme 4.3 nM, 10 min preincubation at 25° C., nitrocefin 50 μg/ml, 50 mM PO4, pH 7.0, read-out: IC50 (nM) Class A TEM-1
[6] = enzyme 7.1 nM, 10 min preincubation at 25° C., nitrocefin 50 μg/ml, 50 mM PO4, pH 7.0, read-out: IC50 (nM) Class A Imi
[7] = enzyme 2.1 nM, 10 min preincubation at 25° C., nitrocefin 50 μg/ml, 50 mM PO4, pH 7.0, read-out: IC50 (nM) Class C AmpC

Chain of class A β-lactamase TEM-1 (P62593 24-286 limits assumed): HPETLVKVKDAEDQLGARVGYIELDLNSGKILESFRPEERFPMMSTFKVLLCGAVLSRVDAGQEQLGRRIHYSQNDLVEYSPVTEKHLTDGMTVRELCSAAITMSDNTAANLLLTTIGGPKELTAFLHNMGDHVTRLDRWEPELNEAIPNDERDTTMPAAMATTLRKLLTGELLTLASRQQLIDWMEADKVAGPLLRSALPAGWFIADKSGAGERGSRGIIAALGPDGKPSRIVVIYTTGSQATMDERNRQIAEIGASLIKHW
Chain of class C enzyme AmpC (P05364 21-381): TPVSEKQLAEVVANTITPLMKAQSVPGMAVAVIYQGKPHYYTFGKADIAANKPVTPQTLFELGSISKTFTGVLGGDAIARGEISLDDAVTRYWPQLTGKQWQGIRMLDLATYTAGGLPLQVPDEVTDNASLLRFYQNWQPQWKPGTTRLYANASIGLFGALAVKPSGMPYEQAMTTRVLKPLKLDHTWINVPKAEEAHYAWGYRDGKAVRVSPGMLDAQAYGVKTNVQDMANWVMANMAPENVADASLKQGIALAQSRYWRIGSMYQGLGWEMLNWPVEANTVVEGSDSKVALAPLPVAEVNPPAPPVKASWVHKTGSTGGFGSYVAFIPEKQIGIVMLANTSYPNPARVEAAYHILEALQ
Chain of class B enzyme CcrA (P25910 19-249): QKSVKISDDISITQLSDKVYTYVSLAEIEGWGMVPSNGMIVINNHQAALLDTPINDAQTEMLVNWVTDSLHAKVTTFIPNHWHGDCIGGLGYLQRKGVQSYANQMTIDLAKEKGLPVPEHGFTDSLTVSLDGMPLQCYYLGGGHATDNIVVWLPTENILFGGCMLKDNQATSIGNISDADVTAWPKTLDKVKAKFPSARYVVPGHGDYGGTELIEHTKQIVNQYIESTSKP
Chain of class A β-lactamase Imi-1 (Q46991 entry or part of it): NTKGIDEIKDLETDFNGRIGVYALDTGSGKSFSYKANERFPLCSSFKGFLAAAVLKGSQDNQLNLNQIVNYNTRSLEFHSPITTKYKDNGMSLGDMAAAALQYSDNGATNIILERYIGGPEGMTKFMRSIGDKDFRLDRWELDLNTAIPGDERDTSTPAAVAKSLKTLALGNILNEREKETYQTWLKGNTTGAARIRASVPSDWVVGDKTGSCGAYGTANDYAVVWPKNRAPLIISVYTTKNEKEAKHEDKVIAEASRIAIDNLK

SMILES	IC50 [1, 5] [nM]	IC50 [2, 6] [nM]	IC50 (class B enzyme CcrA) [nM]	IC50 (class C enzyme AmpC; [7]) [nM]	Minimal Inhibitory Concentration E. Cloacae GC1477 (Ampc) (E. Cloacae GC1477 (Ampc)) [µg/mL]	Minimal Inhibitory Concentration E. Coli GC2203 (E. Coli GC2203) [µg/mL]	Minimal Inhibitory Concentration E. Coli GC2844 (E. Coli GC2844) [µg/mL]	Minimal Inhibitory Concentration E. Coli GC2847 (TEM-1) (E. Coli GC2847 (TEM-1)) [µg/mL]	Minimal Inhibitory Concentration E. Coli GC2894 (Ampc) (E. Coli GC2894 (Ampc)) [µg/mL]	Minimal Inhibitory Concentration E. Coli GC2920 (IRT-2) (E. Coli GC2920 (IRT-2)) [µg/mL]	Minimal Inhibitory Concentration P. aeruginos GC1764 (Ampc) [3] [µg/mL]	Minimal Inhibitory Concentration S. Marcescens GC1781 Sme-1 + Ampc [4] [µg/mL]	IC50 [1] [nM]	IC50 [2] [nM]	IC50 (class C enzyme AmpC) [nM]
O=C([O-])C1=CS[C@@H]2/C(=C\c3cc4c(s3)-c3cccnc3SC4)C(=O)N12.[Na+] [Example 21, (5R,6Z)-7-oxo-6-(4H-thieno[2′,3′:45]thiopyrano[2,3-b]pyridin-2-ylmethylene)-4-thia-1-azabicyclo[3.2.0]hept-2-ene-2-carboxylic acid (Sodium salt)]	11	580	210	3.7	>64	2	2	>64	32	4	64	2			
Cn1c2ccccc2n2cc(/C=C3/C(=O)N4C(C(=O)O)=CS[C@H]34)nc12 [Example 20, (5R),(6Z)-8-[(9-methyl-9H-imidazo[1,2-a]benzimidazol-2-yl)methylene]-7-oxo-4-thia-1-azabicyclo[3.2.0]hept-2-ene-2-carboxylic acid]					>64	2	4	>64	32	4	32	2			
COc1nc2nc(/C=C3/C(=O)N4C(C(=O)O)=CS[C@H]34)cn2c2c1CCC2 [Example 26, (5R,6Z)-6-[(5-methoxy-7,8-dihydro-6H-cyclopenta[e]imidazo[1,2-a]pyrimidin-2-yl)methylene]-7-oxo-4-thia-1-azabicyclo[3.2.0]hept-2-ene-2-carboxylic acid, sodium salt]			420										48	63	10
O=C(O)C1=CS[C@@H]2/C(=C\c3cn4nc5c(c4s3)CCC5)C(=O)N12 [Example 18, (5R),(6Z)-6-(7,8-dihydro-6H-cyclopenta[3,4]pyrazolo[5,1-b][1,3]thiazol-2-ylmethylene)-7-oxo-64-thia-1-azabicyclo[3.2.0]hept-2-ene-2-carboxylic acid]					>64	4	2	>64	>64	4	64	4			
Cc1cccc2sc3nc(/C=C4/C(=O)N5C(C(=O)O)=CS[C@H]45)cn3c12 [Example 13]			228										8.7	102	1.6
O=C(O)C1=CS[C@@H]2/C(=C\c3cn4c(nc5ccccc54)s3)C(=O)N12 [Example 17, (5R),(6Z)-7-oxo-6-([1,3]thiazolo[3,2-a]benzimidazol-2-ylmethylene)-4-thia-1-azabicyclo[3.2.0]hept-2-ene-2-carboxylic acid]					>64	2	2	64	>64	4	32	8			
CCOC(=O)N1CCc2c(oc3cc(/C=C4/C(=O)N5C(C(=O)[O-])=CS[C@H]45)nn23)C1.[Na+] [Example 33, (5R,6Z)-6-{[6-(ethoxycarbonyl)-5,6,7,8-tetrahydropyrazolo[5′,1′:2,3][1,3]oxazolo[5,4-c]pyridin-2-yl]methylene}-7-oxo-4-thia-1-1-azabicyclo[3.2.0]hept-2-ene-2-carboxylic acid, sodium salt]	10	360	160	140	>64	2	2	64	64	4	>64	2			
O=C(O)C1=CS[C@@H]2/C(=C\c3cn4c(cnc5ccccc54)n3)C(=O)N12 [Example 6, (5R),(6Z)-6-(Imidazo[1,2-a]quinoxaline-2-ylmethylene)-7-oxo-4-thia-1-azabicyclo[3.2.0]hepto-2-ene-2-carboxylic acid, sodium salt]			350										2.5	210	1.2
O=C(O)C1=CS[C@@H]2/C(=C\c3cc4oc5c(n4n3)CCOC5)C(=O)N12 [Example 31, (5R,6Z)-6-(7,8-dihydro-5H-pyrano[4,3-d]pyrazolo[5,1-b][1,3]oxazol-2-ylmethylene)-7-oxo-4-thia-1-azabicyclo[3.2.0]hept-2-ene-2-carboxylic acid, sodium salt]			130										4.3	140	4
O=C(O)C1=CS[C@@H]2/C(=C/c3ccc4c(c3)N(Cc3ccccc3)C(=O)c3ccccc3O4)C(=O)N12 [Example 9, (5R,6E)-6-[(10-benzyl-ii-oxo-10,11-dihydrodibenzo[b,f][1,4]oxazepin-8-yl)methylene]-7-oxo-4-thia-1-azabicyclo[3.2.0]hept-2-ene-2-carboxylic Acid]			220										3.5	3600	4.5
